# Measured values: patent publication US9994886B2, “Modified Epstein-Barr virus DNA polymerase and methods for isothermal DNA amplification” (priority 2013, dated 2018)
# Columns and labels:
# [1] = molecular target: T1, EBVpol (Epstein-Barr virus, UniProt P03198); test: Inhibition of EBVpol activity at high salt; type: biochemical; conditions: 20 mM PAA
# T1 construct: Ac-BALF5 baculovirus vector, an expression plasmid vector bearing the full-length BALF5 gene; made in house; host or cells: Sf9 insect cells, recombinant baculoviruses pAc-BALF5 and pAc-BMRF1
# T1 sequence (P03191 whole entry): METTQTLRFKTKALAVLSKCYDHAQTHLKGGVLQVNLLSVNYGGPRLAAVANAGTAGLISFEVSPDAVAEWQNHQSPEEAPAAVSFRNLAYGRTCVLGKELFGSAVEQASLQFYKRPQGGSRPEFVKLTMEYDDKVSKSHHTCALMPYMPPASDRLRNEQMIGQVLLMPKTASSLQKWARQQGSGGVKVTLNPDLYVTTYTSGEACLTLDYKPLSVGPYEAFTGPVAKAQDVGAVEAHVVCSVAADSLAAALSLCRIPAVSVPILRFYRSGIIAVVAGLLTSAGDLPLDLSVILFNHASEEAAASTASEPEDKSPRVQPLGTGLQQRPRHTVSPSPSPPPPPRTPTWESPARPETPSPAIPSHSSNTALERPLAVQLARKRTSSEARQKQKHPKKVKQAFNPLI
# T1 sequence (P03198 whole entry, added parts left off): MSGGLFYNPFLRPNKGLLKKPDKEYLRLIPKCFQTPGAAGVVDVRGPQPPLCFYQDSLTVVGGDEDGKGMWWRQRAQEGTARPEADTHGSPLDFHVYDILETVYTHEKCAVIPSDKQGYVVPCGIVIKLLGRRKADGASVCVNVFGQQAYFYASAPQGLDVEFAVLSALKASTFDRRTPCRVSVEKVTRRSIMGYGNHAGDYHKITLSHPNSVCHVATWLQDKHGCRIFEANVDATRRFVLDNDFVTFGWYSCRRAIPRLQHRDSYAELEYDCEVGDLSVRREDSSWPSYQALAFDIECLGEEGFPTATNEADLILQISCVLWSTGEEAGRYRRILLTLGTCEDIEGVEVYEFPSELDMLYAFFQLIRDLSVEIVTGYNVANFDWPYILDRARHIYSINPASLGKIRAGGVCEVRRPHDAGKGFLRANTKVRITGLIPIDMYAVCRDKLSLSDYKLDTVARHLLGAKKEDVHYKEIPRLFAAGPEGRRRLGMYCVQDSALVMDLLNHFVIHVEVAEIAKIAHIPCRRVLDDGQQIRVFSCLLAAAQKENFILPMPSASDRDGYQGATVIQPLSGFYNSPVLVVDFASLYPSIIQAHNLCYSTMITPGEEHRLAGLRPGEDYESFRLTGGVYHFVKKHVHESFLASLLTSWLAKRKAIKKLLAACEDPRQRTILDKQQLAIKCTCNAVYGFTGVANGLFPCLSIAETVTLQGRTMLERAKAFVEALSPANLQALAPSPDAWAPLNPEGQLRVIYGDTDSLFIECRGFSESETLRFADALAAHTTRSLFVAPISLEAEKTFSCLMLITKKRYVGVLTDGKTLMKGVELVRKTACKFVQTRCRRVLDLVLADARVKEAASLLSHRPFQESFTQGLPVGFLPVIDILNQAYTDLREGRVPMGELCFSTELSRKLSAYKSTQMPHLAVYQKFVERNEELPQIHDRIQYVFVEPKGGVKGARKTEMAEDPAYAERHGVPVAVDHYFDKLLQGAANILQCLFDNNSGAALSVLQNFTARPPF
# Experimental: (§1) When assayed in the presence of BMRF1, its activity on CT DNA at 100 mM ammonium sulfate was greater than 100-fold increased over its activity alone, in the absence of salt.
# [2] = tested on: singly-primed M13mp18 single-stranded DNA circle; conditions: cited from earlier work
# [3] = tested on: oligo dG:poly dC; test: Activity on synthetic primer:template, GC preference; type: biochemical
# Description: EBVpol and the modified EBVpol of this invention have strong amplification activity on GC-rich regions of DNA sequences; EBV DNA polymerase has 29-fold greater activity on synthetic oligo dG:poly dC (primer:template) compared to oligo dA:poly dT. GC-rich DNA sequences are the most difficult-to-amplify DNA sequences. […] Thus, the GC-preference of EBVpol and its variants makes EBVpol and its variants preferred reagents for whole genome amplification (“WGA”).
# [4] = BALF5 combined with BMRF1; cited from earlier work
# [5] = molecular target: T2, GST-BMRF1(1-303) (Epstein-Barr virus, UniProt P03191); test: Binding of radiolabeled BALF5-deletion polypeptides to GST-BMRF1(1-303); conditions: 100 mM ammonium sulfate; [35S]-methionine labeled in vitro translated polypeptides
# T2 construct: A GST fusion with BMRF1 residues 1-303 was constructed and expressed in E. coli BL21*DE3; made in house; host or cells: E. coli BL21*DE3
# T2 sequence (P03191 1-303): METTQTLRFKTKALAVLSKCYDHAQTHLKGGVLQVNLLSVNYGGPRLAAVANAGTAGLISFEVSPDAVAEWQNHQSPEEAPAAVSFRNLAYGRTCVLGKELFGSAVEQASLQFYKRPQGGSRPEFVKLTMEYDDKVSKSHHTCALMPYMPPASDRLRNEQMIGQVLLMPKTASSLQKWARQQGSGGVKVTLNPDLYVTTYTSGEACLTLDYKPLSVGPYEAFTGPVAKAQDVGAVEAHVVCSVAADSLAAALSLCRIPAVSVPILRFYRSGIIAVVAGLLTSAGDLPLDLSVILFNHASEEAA
# Experimental: (§2) To determine if the extreme carboxyl terminus of the EBV BALF5 subunit is necessary for functional interaction with BMRF1, a series of deletions of the BALF5 open reading frame was constructed in the pYES-X2 vector and [^35S]-methionine labeled polypeptides were expressed by in vitro transcription-translation as described (Kiehl, A. and D. I. Dorsky, J Virol, 1995, 69(3): p. 1669-77). These radiolabeled BALF5-deletion polypeptides were then assayed for binding to GST-BMRF1(1-303) in 100 mM ammonium sulfate. In vitro translated BALF5 bound to GST-BMRF1(1-303) but not to GST alone.
# [6] = tested on: activated calf thymus (CT) DNA; test: DNA polymerase elongation activity of purified BALF5 on activated calf thymus DNA; type: biochemical
# Experimental: as §1
# [7] = molecular target: T3, GST-BMRF1 fusion (Epstein-Barr virus, UniProt P03191); test: GST-BMRF1 fusion binding to BALF5 on glutathione agarose beads at varied salt
# T3 construct: A GST fusion with BMRF1 residues 1-303 was constructed and expressed in E. coli BL21*DE3; made in house; host or cells: E. coli BL21*DE3
# T3 sequence (P03191 1-303): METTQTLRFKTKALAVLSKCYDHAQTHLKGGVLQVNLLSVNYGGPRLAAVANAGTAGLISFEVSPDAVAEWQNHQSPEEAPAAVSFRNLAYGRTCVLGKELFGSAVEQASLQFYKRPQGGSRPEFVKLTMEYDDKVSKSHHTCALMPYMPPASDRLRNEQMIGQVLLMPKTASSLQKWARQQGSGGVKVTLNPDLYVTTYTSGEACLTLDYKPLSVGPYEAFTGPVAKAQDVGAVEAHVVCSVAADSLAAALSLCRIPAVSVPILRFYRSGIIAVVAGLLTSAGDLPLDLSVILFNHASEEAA
# Experimental: A GST fusion with BMRF1 residues 1-303 was constructed and expressed in E. coli BL21*DE3 as a soluble 58 kDa protein which bound specifically to glutathione-agarose. Glutathione agarose beads were incubated in bacterial extract containing either 27 kDa wild-type GST or 58 kDa GST-BMRF1 and extensively washed in PBS, or 50 mM Tris-HCl, pH 8.0 containing 0, 50, 100, 150, or 200 mM ammonium sulfate. The beads were then incubated in the same wash buffers in the presence of [^35S]-methionine labeled in vitro translated BALF5, and then the beads were washed extensively at the same salt concentrations as the incubations. The washed beads were boiled in SDS sample buffer and the eluted proteins were analyzed by SDS-PAGE/fluorography. Measures taken to avoid the copurification of nucleic acids included washing the column at 600 mM NaCl and application of DNase to the column. And SDS-PAGE analysis was used to monitor GST-BMRF1 (1-303). […] Non-specific binding of BALF5 to the 27 kDa GST was very weak and independent of salt concentration.
# [8] = tested on: activated calf thymus DNA; test: DNA polymerase assay, incorporation of [32P]-dCMP into trichloroacetic acid-precipitable material; type: biochemical; conditions: 100 mM ammonium sulfate; polypeptides in equimolar ratios
# Experimental: The activity of the bacterially-expressed purified BMRF1(1-303)(“ΔC303”) polypeptide was examined in a DNA polymerase assay which measured incorporation of [^32P]-α-dCMP into trichloroacetic acid-precipitable material using activated calf thymus DNA and [^32P]-α-dCTP as the substrates in the presence of 100 mM ammonium sulfate (Tsurumi, T., T. Daikoku, and Y. Nishiyama, J Virol, 1994, 68(5): p. 3354-63). The BALF5 catalytic DNA polymerase subunit was obtained by expression in insect cells from the Ac-BALF5 baculovirus and purified by phosphocellulose and heparin affinity chromatography. The polypeptides were assayed in equimolar ratios and the specific activity (micromoles of dCMP incorporation per milligram of protein per hour) is shown in Table 3.
# The GST-BMRF1 (1-303) polypeptide was bound to glutathione-agarose as described previously and cleaved overnight with 1/50 (w/w) factor Xa (NEBioLabs, Ipswich, Mass.) in 1 mM CaCl2. The cleaved BMRF1 (1-303) was then purified on DNA-cellulose, eluting at 300-500 mM NaCl. SDS-PAGE analysis confirmed the size of the uncleaved GST-BMRF1 (1-303) and the purified cleaved BMRF1 (1-303). The purified BMRF1 (1-303) was then shown to stimulate purified baculovirus-expressed BALF5 in 100 mM ammonium sulfate (see Table 3).
# [9] = molecular target: T4, GST (Schistosoma japonicum, UniProt P08515); test: Non-specific binding of in vitro translated BALF5 to GST
# T4 construct: made in house; host or cells: E. coli (bacterial extract)
# T4 sequence (P08515 whole entry): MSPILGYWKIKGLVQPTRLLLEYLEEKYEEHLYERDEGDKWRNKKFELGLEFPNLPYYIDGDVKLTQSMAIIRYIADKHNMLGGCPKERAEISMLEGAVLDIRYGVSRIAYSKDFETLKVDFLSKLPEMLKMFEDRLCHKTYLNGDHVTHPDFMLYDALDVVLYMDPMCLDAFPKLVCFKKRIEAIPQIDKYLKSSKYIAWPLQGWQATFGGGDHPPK
# Experimental: as §2
# A GST fusion with BMRF1 residues 1-303 was constructed and expressed in E. coli BL21*DE3 as a soluble 58 kDa protein which bound specifically to glutathione-agarose. Glutathione agarose beads were incubated in bacterial extract containing either 27 kDa wild-type GST or 58 kDa GST-BMRF1 and extensively washed in PBS, or 50 mM Tris-HCl, pH 8.0 containing 0, 50, 100, 150, or 200 mM ammonium sulfate. The beads were then incubated in the same wash buffers in the presence of [^35S]-methionine labeled in vitro translated BALF5, and then the beads were washed extensively at the same salt concentrations as the incubations. The washed beads were boiled in SDS sample buffer and the eluted proteins were analyzed by SDS-PAGE/fluorography. […]
molecule,measurement,setting,value
"O=C(O)CP(=O)(O)O [PAA, phosphonoacetic acid]",inhibition at 20000 µM,[1],60%
EBV DNA polymerase holoenzyme: 1:1 complex of BALF5 catalytic subunit and BMRF1 processivity factor,strand-displacement activity (SDA),[2],possesses signification SDA
same,rate of incorporation,[2]; singly-primed M13mp18 single-stranded DNA circle,approximately 7200 nucleotides in 10 minutes
same,activity on oligo dG:poly dC compared to oligo dA:poly dT,[3],29 fold
same,ionic strength optimum of processive primer-dependent DNA synthesis,[4],150 mM ammonium sulfate
"BALF5: 116-kDa catalytic subunit of EBV DNA polymerase with intrinsic 3′-5′ exonuclease activity, SEQ ID NO. 8",binding to GST-BMRF1(1-303),[5],bound
same,DNA polymerase elongation activity on activated CT DNA,"[6]; 100 mM ammonium sulfate, BALF5 alone",completely inactive
same,increase of activity on CT DNA over its activity alone in the absence of salt,"[6]; in the presence of BMRF1, 100 mM ammonium sulfate",greater than 100 fold
same,DNA polymerase elongation activity on activated CT DNA,[6]; low ionic strength,significant DNA polymerase elongation activity
same,binding to the GST-BMRF1 fusion,[7]; 0 and 200 mM ammonium sulfate,bind poorly
same,binding to the GST-BMRF1 fusion,[7]; PBS and 50-150 mM ammonium sulfate,bound efficiently
same,Specific Activity,[8],1.7 micromoles of dCMP incorporation per milligram of protein per hour
same,binding to GST alone,[9],very weak
ΔC303: BMRF1 with deletion of the C-terminal 101 amino acids (residues 1-303) (protein) METTQTLRFKTKALAVLSKCYDHAQTHLKGGVLQVNLLSVNYGGPRLAAVANAGTAGLISFEVSPDAVAEWQNHQSPEEAPAAVSFRNLAYGRTCVLGKELFGSAVEQASLQFYKRPQGGSRPEFVKLTMEYDDKVSKSHHTCALMPYMPPASDRLRNEQMIGQVLLMPKTASSLQKWARQQGSGGVKVTLNPDLYVTTYTSGEACLTLDYKPLSVGPYEAFTGPVAKAQDVGAVEAHVVCSVAADSLAAALSLCRIPAVSVPILRFYRSGIIAVVAGLLTSAGDLPLDLSVILFNHASEEAA,Specific Activity,[8],0.2 micromoles of dCMP incorporation per milligram of protein per hour
